From article PMC8067632, “Assessment and Development of the Antifungal Agent Caspofungin for Aerosolized Pulmonary Delivery” (Pharmaceutics, 2021)

Key:
[1] = test system: Candida albicans ATCC44858; test: microbe, parasite or virus in culture; type: cell-based; settings: CLSI broth microdilution, visual, duplicate
Protocol: (§1) Antifungal potency of the test article(s) was measured using the in vitro broth microdilution assay under test conditions described by the Clinical and Laboratory Standards Institute. Minimum Inhibitory Concentration (MIC) is defined as the lowest concentration of an agent that causes a specified reduction in visible growth of the microorganism. Minimum Effective Concentration (MEC) is defined as the lowest concentration of an agent that leads to the growth of small, rounded, compact hyphal forms, as compared to the hyphal growth typically seen in the growth control well. MIC values were determined for 9 Candida spp., and MEC values were determined for filamentous fungus species (Aspergillus fumigatus and Trichophyton rubrum). Details of the test article preparations and methodologies are described in Supplementary Material S1.
(§2) Following incubation, the test plates were visually examined and wells were scored for growth or complete growth inhibition to define the MIC values. Microscopy examination was used to determine the MEC values. Each test substance was evaluated in duplicate and the results are the duplicate test values. Vehicle-control and an active reference agent were used as blank and positive controls, respectively. […]
(§3) S1. In Vitro Testing, Test Article Preparations
(§4) The 5 mg/mL stock solution was prepared as the following. The refrigerated vial was equilibrated to room temperature. Test vial was reconstituted aseptically with 10.5 mL 0.9% NaCl. The powder was dissolved completely, mixing until a clear solution was ob-tained. The final concentration was 5.0 mg/mL of caspofungin freebase. The reconstituted solution was stable for 1 hr at room temperature. The 5 mg/mL stock solution was then […]
(§5) The refrigerated vial was equilibrated to room temperature. The powder was dis-solved completely, mixing until a clear solution was obtained. Test vial was reconstituted aseptically with 1.8 mL 0.9% NaCl. The white to off-white powder was dissolved com-pletely, mixing gently until a clear solution was obtained. The final concentration was 5.0 mg/mL of caspofungin freebase. The reconstituted solution was used within 1 hr at room temperature. The 5 mg/mL stock solution was then diluted with 0.9% NaCl to prepare the […]
(§6) 1.3. Caspofungin Diacetate
(§7) The 5 mg/mL API stock solution was prepared as the following. The refrigerated vial was equilibrated to room temperature. Test vial was filled aseptically with 1.8 mL 0.9%
(§8) NaCl. The powder was dissolved completely, mixing until a clear solution was obtained.
(§9) The final concentration was 5.0 mg/mL of caspofungin freebase. The reconstituted solu-tion was used within 1 hr at room temperature. The 5 mg/mL stock solution was then […]
(§10) g compound, corresponding to 1.2 mg active compound with a correction factor of 2.40 was added 0.375 mL of water for injection to generate the 3.2 mg/mL working stock solution for testing. The 3.2 mg/mL working stock solution was 2-fold diluted seri-ally in 0.9% NaCl to prepare a total of eleven 50-fold stock solutions, concentrations rang-ing from 3.2 to 0.003 mg/mL. A 4 μL aliquot of each dilution was added to 196 μL of broth medium seeded with the organism suspension in wells of a 96 well plate (fungal cell count: 1 x 10^3 to 1 x 10^4 colony forming units per mL). The final volume was 200 μL in each […]

[2] = test system: Candida albicans ATCC90028 + 50%human serum; test: microbe, parasite or virus in culture; type: cell-based; settings: CLSI broth microdilution, duplicate
Protocol: as §1, §2, §3, §4, §5, §6, §7, §8, §9, §10

[3] = test system: Candida albicans ATCC90028; test: microbe, parasite or virus in culture; type: cell-based; settings: CLSI broth microdilution, visual, duplicate
Protocol: as §1, §2, §3, §4, §5, §6, §7, §8, §9, §10

[4] = test system: Candida albicans Azole-R (20183.073); test: microbe, parasite or virus in culture; type: cell-based; settings: CLSI broth microdilution, azole-resistant strain, duplicate
Protocol: as §1, §2, §3, §4, §5, §6, §7, §8, §9, §10

[5] = test system: Candida albicans Azole-R (20186.025); test: microbe, parasite or virus in culture; type: cell-based; settings: CLSI broth microdilution, azole-resistant strain, duplicate
Protocol: as §1, §2, §3, §4, §5, §6, §7, §8, §9, §10

[6] = test system: Candida glabrata ATCC 36583; test: microbe, parasite or virus in culture; type: cell-based; settings: CLSI broth microdilution, duplicate
Protocol: as §1, §2, §3, §4, §5, §6, §7, §8, §9, §10

Candida krusei ATCC 6258 = test: microbe, parasite or virus in culture; type: cell-based; settings: CLSI broth microdilution, duplicate
Protocol: as §1, §2, §3, §4, §5, §6, §7, §8, §9, §10

[7] = test system: Candida parapsilosis ATCC 22019; test: microbe, parasite or virus in culture; type: cell-based; settings: CLSI broth microdilution, duplicate
Protocol: as §1, §2, §3, §4, §5, §6, §7, §8, §9, §10

[8] = test system: Candida tropicalis ATCC 200956; test: microbe, parasite or virus in culture; type: cell-based; settings: CLSI broth microdilution, duplicate
Protocol: as §1, §2, §3, §4, §5, §6, §7, §8, §9, §10

[9] = Stability of lyophilized formulations by HPLC; type: physicochemical; settings: caspofungin API lyophilized alone from water, 0 months; HPLC UV 220 nm
Protocol: Lyophilization was accomplished using a VirTis benchtop manifold lyophilizer (SP Scientific, Stone Ridge, NY, USA) under vacuum of <50 mTorr. […] High-performance liquid chromatography (HPLC) analysis was carried out on a Waters 2695 separations module (Waters Corporation, Milford, MA, USA) equipped with an autosampler and a Waters 996 photodiode array detector. For impurity determinations a Waters Symmetry (Waters Corporation, Milford, MA, USA) C18 3.5 µm, 4.6 × 75 mm column was used. For weight-weight assay a Waters Symmetry C18 Column (Waters Corporation, Milford, MA, USA), 3.5 µm, 4.6 mm × 100 mm column was employed. […] Reconstituted stability analyses were analyzed using the above HPLC methods.
The stability of the lyophilized formulations was studied under two sets of temperature conditions, 2–5 °C and 25 °C. […] At the specified time points the test articles were reconstituted with normal saline to yield a 10 mg/mL solution for HPLC assay. For comparison, we also lyophilized caspofungin API alone.
HPLC analysis was carried out on a Waters 2695 separations module equipped with
an autosampler and a Waters 996 photodiode array detector. The HPLC method is de-
Column: Waters symmetry C18 3.5 μm, 4.6 x 75 mm
Column Temperature: 30 °C
Autosampler temperature: 4 °C
Mobile phase: A: Add 1.0 mL of perchloric acid and 0.75 g of sodium chloride in 1000
mL HPLC grade water; B: Acetonitrile. […]

[10] = test system: invasive aspergillosis patients; settings: cited from earlier work
Source text: Invasive Pulmonary Aspergillosis (IPA) and Pneumocystis jiroveci Pneumonia (PCP) are serious fungal pulmonary diseases for immunocompromised patients. The brand name drug […]® (Caspofungin acetate for injection) is FDA approved to treat IPA, but is only 40% effective. Efficacious drug levels at the lung infection site are not achieved by systemic administration. Increasing the dose leads to toxicity. The objective, here, is to reformulate caspofungin for aerosolization to high drug concentration by lung targeted delivery and avoid systemic distribution. Described in this paper is a new, ... || Morphologically Aspergillus grows and propagates within the lung cavity. […] This may explain low human efficacy (40%) of caspofungin in treating IPA. Drug concentr ... || Caspofungin for injection (tradename: […]®) is sold by Merck & Co., Inc. The approved […]® dose is a 70 mg loading dose and then 50 mg/daily. Previous intravenous (IV) studies with caspofungin in animals have shown that IV administered drug only delivers about 5% of the drug level in blood to the lungs. […] Most of the IV drugs is distributed to other sensitive target organs, such as the liver and kidneys, which if given in higher doses, can lead ... || (+ 1 further places)

CC[C@H](C)C[C@H](C)CCCCCCCCC(=O)N[C@H]1C[C@@H](O)[C@@H](NCCN)NC(=O)[C@@H]2[C@@H](O)CCN2C(=O)[C@H]([C@H](O)CCN)NC(=O)[C@H]([C@H](O)[C@@H](O)c2ccc(O)cc2)NC(=O)[C@@H]2C[C@@H](O)CN2C(=O)[C@H]([C@@H](C)O)NC1=O [Caspofungin Diacetate]
MIC [1]: 0.25 µg/mL | MIC [2]: 0.125 µg/mL | MIC [3]: 0.25 µg/mL | MIC [4]: 0.25 µg/mL | MIC [5]: 0.25 µg/mL | MIC [6]: 0.25 µg/mL | MIC (Candida krusei ATCC 6258): 1 µg/mL | MIC [7]: 1 µg/mL | MIC [8]: 0.25 µg/mL | HPLC Purity % [9]: 95.42% | response rate (complete or partial response) ([10]; IPA patients, high dose group 200 mg/day intravenously): 60% | favorable response ([10]; IPA patients, standard dose group IV): 44% | patients presenting with liver toxicity ([10]; high dose group 200 mg/day IV, elevated liver enzymes and liver failure): 65% | liver enzyme abnormalities ([10]; standard dose group IV): No liver enzyme abnormalities were observed
